# Assay results as given in patent publication US11414424B2, “Cardiac sarcomere inhibitors” (Cytokinetics, Inc., priority 2018, dated 2022).
# System: bovine cardiac myofibrils
# Experiment: Myofibril assay: PK/LDH-coupled steady-state ATPase activity of skinned bovine cardiac myofibrils
# Type: biochemical
# Conditions: Ca2+ activating to 75% of maximal rate
# Summary of the method: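 Steady-state ATPase of detergent-skinned bovine left-ventricular myofibrils (1 mg/mL), PK/LDH-coupled NADH read at 340 nm, in PIPES/MgCl2 buffer pH 6.8 with 50 μM ATP, 0.6 mM EGTA and CaCl2 set for 50% or 75% activation. Inhibition of activity measured.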
row,CDMF75 IC15 [µM],Structure (SMILES)
1,36.0,"CC(C)N1CC(=O)N(Cc2ccc(Cl)cn2)C(c2ccc(Cl)cc2)C1=O (centres unmarked) [Compound 293, 3-(4-chlorophenyl)-4-((5-chloropyridin-2-yl)methyl)-1-isopropylpiperazine-2,5-dione]"
2,33.3,"CC(C)N1CC(=O)N(Cc2ccccc2)C(c2ccc(Cl)cc2)C1=O (centres unmarked) [Compound 294, 4-benzyl-3-(4-chlorophenyl)-1-isopropylpiperazine-2,5-dione]"
3,5.4,"CC(C)N1CC(=O)N(Cc2cccc(Cl)c2)C(c2ccc(Cl)cc2)C1=O (centres unmarked) [Compound 298, 4-(3-chlorobenzyl)-3-(4-chlorophenyl)-1-isopropylpiperazine-2,5-dione]"
4,7.0,"CC(C)N1CC(=O)N(Cc2cccc(F)c2)C(c2ccc(Cl)cc2)C1=O (centres unmarked) [Compound 299, 3-(4-chlorophenyl)-4-(3-fluorobenzyl)-1-isopropylpiperazine-2,5-dione]"
5,28.3,"Cc1ccccc1CN1C(=O)CN(C(C)C)C(=O)C1c1ccc(Cl)cc1 (centres unmarked) [Compound 300, 3-(4-chlorophenyl)-1-isopropyl-4-(2-methylbenzyl)piperazine-2,5-dione]"
6,15.2,"CC(C)N1CC(=O)N(Cc2ccccc2Cl)C(c2ccc(Cl)cc2)C1=O (centres unmarked) [Compound 302, 4-(2-chlorobenzyl)-3-(4-chlorophenyl)-1-isopropylpiperazine-2,5-dione]"
7,3.7,"CC(C)N1CC(=O)N(Cc2ccc(F)cc2)C(c2ccc(Cl)cc2)C1=O (centres unmarked) [Compound 303, 3-(4-chlorophenyl)-4-(4-fluorobenzyl)-1-isopropylpiperazine-2,5-dione]"
8,16.4,"Cc1cccc(CN2C(=O)CN(C(C)C)C(=O)C2c2ccc(Cl)cc2)c1 (centres unmarked) [Compound 304, 3-(4-chlorophenyl)-1-isopropyl-4-(3-methyl-benzyl)piperazine-2,5-dione]"
9,6.0,"Cc1ccc(CN2C(=O)CN(C(C)C)C(=O)C2c2ccc(Cl)cc2)cc1 (centres unmarked) [Compound 305, 3-(4-chlorophenyl)-1-isopropyl-4-(4-methylbenzyl)piperazine-2,5-dione]"
10,27.0,"CC(C)N1CC(=O)N(Cc2cccc(C#N)c2)C(c2ccc(Cl)cc2)C1=O (centres unmarked) [Compound 306, 3-((2-(4-chlorophenyl)-4-isopropyl-3,6-dioxo-piperazin-1-yl)methyl)-benzonitrile]"
11,36.7,"CC(C)N1CC(=O)N(Cc2ccc(C#N)cc2)C(c2ccc(Cl)cc2)C1=O (centres unmarked) [Compound 307, 4-((2-(4-chlorophenyl)-4-isopropyl-3,6-dioxo-piperazin-1-yl)methyl)-benzonitrile]"
12,2.8,"CC(C)N1CC(=O)N(Cc2ccc(C(F)(F)F)cc2)C(c2ccc(Cl)cc2)C1=O (centres unmarked) [Compound 309, 3-(4-chlorophenyl)-1-isopropyl-4-(4-(trifluoro-methyl)benzyl)piperazine-2,5-dione]"
13,13.1,"CC(C)N1CC(=O)N(Cc2ccc(Cl)cc2)C(c2ccccc2Cl)C1=O (centres unmarked) [Compound 310, 4-(4-chlorobenzyl)-3-(2-chlorophenyl)-1-isopropylpiperazine-2,5-dione]"
14,5.9,"CC(C)N1CC(=O)N(Cc2ccc(Cl)cc2)C(c2ccc(F)cc2)C1=O (centres unmarked) [Compound 311, 4-(4-chlorobenzyl)-3-(4-fluorophenyl)-1-isopropylpiperazine-2,5-dione]"
15,4.9,"CC(C)N1CC(=O)N(Cc2ccc(Cl)cc2)C(c2cccc(Cl)c2)C1=O (centres unmarked) [Compound 312, 4-(4-chlorobenzyl)-3-(3-chlorophenyl)-1-isopropylpiperazine-2,5-dione]"
16,3.9,"COc1ccc(C2C(=O)N(C(C)C)CC(=O)N2Cc2ccc(Cl)cc2)cc1 (centres unmarked) [Compound 313, 4-(4-chlorobenzyl)-1-isopropyl-3-(4-methoxy-phenyl)piperazine-2,5-dione]"
17,8.4,"CC(C)N1CC(=O)N(Cc2ccc(Cl)cc2)C(c2ccc(C(F)(F)F)cc2)C1=O (centres unmarked) [Compound 314, 4-(4-chlorobenzyl)-1-isopropyl-3-(4-(trifluoro-methyl)phenyl)piperazine-2,5-dione]"

# The next lines start with the compound.
row,Structure (SMILES),CDMF75 IC15 [µM]
1,"N#Cc1ccc(N2CC(=O)N(Cc3ccc(C(F)(F)F)cc3)C(C3COC3)C2=O)c(F)c1 (centres unmarked) [Compound 282, 3-fluoro-4-(3-(oxetan-3-yl)-2,5-dioxo-4-(4-(trifluoromethyl)benzyl)-piperazin-1-yl)benzonitrile]",3.8
2,"CC(C)[C@H]1C(=O)N(c2ccc(C#N)cc2F)CC(=O)N1Cc1ccc(C(F)(F)F)cc1 [Compound 283, (S)-3-fluoro-4-(3-isopropyl-2,5-dioxo-4-(4-(trifluoromethyl)benzyl)-piperazin-1-yl)benzonitrile]",0.6
3,"N#Cc1ccc(N2CC(=O)N(Cc3ccc(C(F)(F)F)cc3)[C@@H](C3CCC3)C2=O)c(F)c1 [Compound 284, (S)-4-(3-cyclobutyl-2,5-dioxo-4-(4-(trifluoromethyl)benzyl)piperazin-1-yl)-3-fluorobenzonitrile]",0.5
4,"CC(C)(C)OC[C@H]1C(=O)N(c2ccc(C#N)cc2F)CC(=O)N1Cc1ccc(C(F)(F)F)cc1 [Compound 285, (S)-4-(3-(tert-butoxymethyl)-2,5-dioxo-4-(4-(trifluoro-methyl)benzyl)piperazin-1-yl)-3-fluorobenzonitrile]",8.3
5,"N#Cc1ccc(N2CC(=O)N(Cc3ccc(C(F)(F)F)cc3)C3(CCOC3)C2=O)c(F)c1 (centres unmarked) [Compound 286, 4-(7,10-dioxo-6-(4-(trifluoromethyl)benzyl)-2-oxa-6,9-diazaspiro[4.5]decan-9-yl)-3-fluorobenzonitrile]",0.7
6,"N#Cc1ccc(N2CC(=O)N(Cc3ccc(C(F)(F)F)cc3)[C@@H](CO)C2=O)c(F)c1 [Compound 287, (S)-3-fluoro-4-(3-(hydroxymethyl)-2,5-dioxo-4-(4-(trifluoromethyl)-benzyl)piperazin-1-yl)-benzonitrile]",3.2
7,"CC(C)N1CC(=O)N(Cc2ccc(Cl)cc2)C(c2ccc(Cl)cn2)C1=O (centres unmarked) [Compound 297, 4-(4-chlorobenzyl)-3-(5-chloropyridin-2-yl)-1-isopropylpiperazine-2,5-dione]",11.6
8,"CC(C)N1CC(=O)N(Cc2ccccc2C#N)C(c2ccc(Cl)cc2)C1=O (centres unmarked) [Compound 301, 2-((2-(4-chlorophenyl)-4-isopropyl-3,6-dioxo-piperazin-1-yl)methyl)-benzonitrile]",18.6
9,"CC(C)N1CC(=O)N(Cc2cccc(C(F)(F)F)c2)C(c2ccc(Cl)cc2)C1=O (centres unmarked) [Compound 308, 3-(4-chlorophenyl)-1-isopropyl-4-(3-(trifluoro-methyl)benzyl)piperazine-2,5-dione]",22.7
10,"CC(C)N1CC(=O)N(Cc2ccc(C(F)(F)F)cn2)C(c2ccc(Cl)cc2)C1=O (centres unmarked) [Compound 315, 3-(4-chlorophenyl)-1-isopropyl-4-((5-(trifluoromethyl)pyridin-2-yl)methyl)piperazine-2,5-dione]",28.9
11,"CC(C)N1CC(=O)N(Cc2ccc(Cl)cc2)C(C)(c2ccc(Cl)cc2)C1=O (centres unmarked) [Compound 316, 4-(4-chlorobenzyl)-3-(4-chlorophenyl)-1-isopropyl-3-methylpiperazine-2,5-dione]",14.3
12,"CC(C)N1CC(=O)N(Cc2ccc(Cl)cc2)C2(Cc3ccccc3C2)C1=O [Compound 317, 1′-(4-chlorobenzyl)-4′-isopropyl-1,3-dihydrospiro[indene-2,2′-piperazine]-3′,6′-dione]",2.3
